Laboratory results taken from patent US9592214B2, “Compounds for the treatment of autism in a baby child” (INSERM (INSTITUT NATIONAL DE LA SANTE ET DE LA RECHERCHE …, priority 2010, dated 2017).
Where “and” joins values, the source holds several entries; their conditions need not be identical. Equal entries are not always repeated. Entries after “also recorded” stand apart in the source; their conditions may differ.

What was measured:
[1] = test system: hippocampal CA3 pyramidal neurons; assay: Whole-cell voltage clamp recordings of sEPSCs in offspring after maternal pretreatment; assay type: in vivo, rat; details: P15 rats, maternal SSR pretreatment (1 mg/kg in drinking water); result in words
Experimental: Standard whole-cell recordings were performed in coronal neocortical rat or mouse brain slices at room temperature (20-22° C.) from the soma of hippocampal CA3 neurons using an EPC-10 (HEKA Elektronik, Germany) amplifier and filtered at 3-10 kHz. The internal solution contained (in mM): 130 K-gluconate, 10 Na-gluconate, 4 NaCl, 4 MgATP, 4 phosphocreatine, 10 HEPES, and 0.3 GTP (pH 7.3 with KOH). Biocytin (final concentration 0.3-0.5%) was added to the pipette solution to label the neurons from which recordings were obtained. Neurons were visualized by using infrared DIC video microscopy. Spontaneous postsynaptic currents were recorded for […] at the reversal potentials for […] currents (−70 mV). It should be specifically noted that all recordings were made in normal ACSF (1.3 mM MgCl2). Stored data were analyzed using the Mini Analysis 6.0.3 (Synaptosoft Inc., Chapell Hill, N.C.) and Origin (MicroCal, Northampton, Mass.) software. To minimize potential sampling bias, the pups from at least three deliveries for each condition were studied. Data are expressed as mean±S.E.M.
Bumetanide (10 μM), Oxytocin (1 μM) and Isoguvacine (2 μM) were directly added to the perfusion solutions. Bumetanide pretreatment (2-2.5 mg/kg) was given to the dams in drinking water. All drugs used were purchased from Sigma. […]

[2] = test system: hippocampal CA3 pyramidal cells; assay: DFGABA in hippocampal CA3 pyramidal cells of offspring after in utero VPA / maternal bumetanide pretreatment; assay type: in vivo, rat; details: VPA rats (dams 600 mg/kg VPA i.p. at E12)
Experimental: (§1) Time-mated female Wistar rats at gestational day E7-8 were housed under standard laboratory conditions. The in utero valproic acid (VPA) rodent model of autism spectrum disorders has been previously described in detail. Briefly, the sodium salt of VPA (Sigma-Aldrich) was dissolved in physiological saline solution to a concentration of 300 mg/ml. Pregnant rats received a single intra-peritoneal dose of 600 mg/kg on gestational day 12 (E12). The control dams received a single similar volume injection of saline at the same gestational time-point. Dams were housed individually and allowed to raise their own litters. The offspring were used for experiments on embryonic day 20 (E20) and postnatal (P) days 0, 2, 4, 7, 15 and 30 (after being weaned at P23). Experiments were carried out on offspring of either sex.
(§2) Experiments were performed on fetuses and neonatal rat pups. We removed E20 rats from deeply anesthetized dams [subcutaneous injection of a mixture of xylazine (Rompun 2%; used at 0.05%) and ketamine (Imalgene 1000 used at 50 g/l)]. Hippocampal slices ([…] thick) were prepared using a Microm tissue slicer (International GmbH, Germany) as described previously (Tyzio et al. 2006 Science 314, 1788; Tyzio et al, 2008, Eur J. Neurosci. 27(10):2515-28). Slices were kept in oxygenated (95% O2/5% CO2) artificial cerebrospinal fluid (ACSF) of the following composition (in mM): NaCl 126, KCl 3.5, CaCl2 2.0, MgCl2 1.3, NaHCO3 25, NaH2PO4 1.2 and glucose 11 (pH 7.4) at room temperature (20-22° C.) at least 1 hour before use.
For recordings, slices were placed into a conventional fully submerged chamber superfused with ACSF at a rate of 2-3 ml/min at room temperature. Patch clamp recordings from visually identified CA3 pyramidal cells in cell-attached configuration were performed using EPC-10 amplifier (HEKA Elektronik Dr. Schulze GmbH, Lambrecht/Pfalz, Germany). Patch pipette solution for recordings of single GABAA channels contained (in mM): NaCl 120, KCl 5, TEA-Cl 20, 4-aminopyridine 5, CaCl2 0.1, MgCl2 10, glucose 10, Hepes-NaOH 10 buffered to pH 7.2-7.3 and GABA 2 μM. Analysis of currents through single channels and current-voltage relationships were performed using Clampfit 9.2 (Axon Instruments, Union City, Calif.). Recordings were digitized (10 kHz) online with Digidata-1200 interface card (Axon Instruments, Union City, Calif.) and analyzed offline with Axon package, MiniAnalysis (S (Synaptsoft, Decatur, Ga.), and Origin (Microcal Software, Northampton, Mass.).
(§3) Bumetanide (10 μM), Oxytocin (1 μM) and Isoguvacine (2 μM) were directly added to the perfusion solutions. Bumetanide pretreatment (2-2.5 mg/kg) was given to the dams in drinking water. All drugs used were purchased from Sigma. SSR126768A (Sanofi-Synthelabo) pretreatment (1 mg/kg) was given to the dams in drinking water.
If the polarity of GABA actions at delivery produces long terms effects in offsprings, then restoring low [Cl^−]i and inhibitory GABA at delivery might restore physiological parameters in juvenile rodents. To test this hypothesis, pregnant females were treated orally 1 day before delivery with bumetanide (2-2.5 mg/kg in drinking water) and juvenile offspring neurons recorded at P15. […] In VPA rats, GABAergic inputs are excitatory and contribute to hyperexcitability of the network. Bumetanide decreases [Cl^−]i and consequently reduces contribution of excitatory GABAergic inputs in the overall network activity.

[3] = test system: Valproate rat model of autism; assay: Isolation-induced ultrasonic vocalizations; assay type: in vivo; details: P4 VPA rats
Experimental: as §1
To induce ultrasonic vocalizations, […], and were placed into an isolation box (23×28×18 cm) located inside a sound attenuating isolation cubicle (54×57×41 cm; Coulbourn Instruments, Allentown, Pa., USA), and evaluated for ultrasonic vocalizations during a three minutes test. An ultrasound microphone (Avisoft UltraSoundGate Condenser microphone capsule CM16/CMPA, Avisoft Bioacoustics, Berlin, Germany), placed in the roof of the box, was sensitive to frequencies of 10 to 250 kHz. Vocalizations were recorded using the Avisoft Recorder software (version 4.2) with a sampling rate of 250 kHz in 16 bit format. For acoustical analysis, recordings were transferred to SASLab Pro (version 5.2; Avisoft Bioacoustics) and a fast Fourier transformation was conducted (512 FFT-length, 100% frame, Hamming window and 75% time window overlap). The accuracy of call detection was verified manually by an educated user. A Pearson correlation coefficient was computed to assess the relationship between Automatic and Manual analysis. There was 0.99 correlation between the two variables.
as §3

[4] = test system: Valproate rat model of autism; assay: In vivo EEG recordings in the CA3 area of hippocampus of head-restrained rats; details: VPA rats P13-15
Experimental: as §1
Head-fixed rat pups of age P13-P15 were prepared for extracellular recording under isoflurane anesthesia. The skin and periosteum were removed from the skull, which was then covered by glue and dental cement except for a 4-9 mm^2 window above the somatosensory cortex from one or two hemispheres for the silicon probe penetration (4.0-4.2 mm lateral to midline and 2.2-2.5 mm caudal to bregma) and for the reference electrode (1.0-1.5 mm lateral to midline and 6.0-6.5 mm caudal to bregma). The rat was positioned in the stereotaxic apparatus. A 1 mm-diameter burr hole was drilled in the skull; the dura was cut and removed. Recordings were made 1 h after recovery from anesthesia. Pups were kept restrained for <3 h and were closely monitored for signs of stress and to ensure that they spent a normal proportion of their time sleeping. The outside temperature was maintained between 35 and 36° C. The animals were kept in low-light conditions throughout all experiments. 16-site linear silicone probe (NeuroNexus Technologies) coupled to a direct-current amplifier (Molecular Devices) and dunked previously in fluorescent dye (DiI, Invitrogen) was slowly penetrated via the hole at […] depth under the angle 30° in the coronal plane. EEGs were recorded during 2 hours, using a 16-channel amplifier (A-M System, Inc.) and digitized at 5 kHz using Axoscope software (Molecular Deviced). Recordings were amplified and high-pass filtered at 0.3 Hz in Axoscope. Silicone probe location was verified postmortem via dye localization. To quantify the frequency band integral power the traces were band-pass filtered at frequency bands […]) θ-(4-7 Hz), α-(7-12 Hz), β-(12-25 Hz), Low γ-(25-60 Hz), High γ-(60-120 Hz) and Fast oscillations-(120-500 Hz)). Fast Fourier Transform (FFT) was applied with Clampfit (Molecular Devices). Integrals of FFT power spectra were taken and averaged with OriginPro (OriginLab Corporation).
as §3

[5] = test system: hippocampal slices; assay: Effects of isoguvacine on spike frequency, extracellular field potential recordings in hippocampal slices; assay type: cell-based, rat; details: P15
Experimental: as §2
Extracellular field potentials and multi-unit activity (MUA) recordings Recording were made in the hippocampal slices using tungsten wire electrodes (diameter: 50 μm, California Fine Wire, Grover Beach, Calif.) and a low-noise multichannel DAM-8A amplifiers (WPI, GB; […]; gain: ×1000). The signals were digitized using an analogue-to-digital converter (Digidata 1440A, Axon Instruments, USA). pCLAMP 10.1, Clampfit 10.1 (Axon Instruments, USA), MiniAnalysis 6.03 (Synaptosoft, Decatur, Calif.) and Origin 7.5 (Microcal Software, USA) programs were used for the acquisition and analysis of the synaptic activities. Sampling interval per signal was 100 microseconds (10 kHz).
as §3

[6] = test system: CA3 pyramidal cells; assay: Effect of isoguvacine on spontaneous spiking, cell-attached recordings; assay type: cell-based, rat; details: result in words
Experimental: as §2
For recordings, slices were placed into a conventional fully submerged chamber superfused with ACSF at a rate of 2-3 ml/min at room temperature. Patch clamp recordings from visually identified CA3 pyramidal cells in cell-attached configuration were performed using EPC-10 amplifier (HEKA Elektronik Dr. Schulze GmbH, Lambrecht/Pfalz, Germany). […] Recordings were digitized (10 kHz) online with Digidata-1200 interface card (Axon Instruments, Union City, Calif.) and analyzed offline with Axon package, MiniAnalysis (S (Synaptsoft, Decatur, Ga.), and Origin (Microcal Software, Northampton, Mass.). […]

With `CCN(Cc1cccnc1)C(=O)c1ccc(Cl)c([C@]2(C)C(=O)N(Cc3ccc(OC)cc3OC)c3ccc(Cl)cc32)c1` [SSR] the “spontaneous activity of neuronal networks (sEPSCs)” value [1] was “increases”.

In the case of `CCCC(CCC)C(=O)O` [VPA, valproic acid], the “DFGABA (mV), mean ± S.E.” value ([2]; age E20) is reported as 8.5 ± 0.6 (n = 9) mV, the “DFGABA (mV), mean ± S.E.” value ([2]; age P0) is reported as 8.2 ± 1.3 (n = 29) mV and the “DFGABA (mV), mean ± S.E.” value ([2]; age P2) is reported as 11.7 ± 1.4 (n = 24) mV. For the same molecule, the “DFGABA (mV), mean ± S.E.” value ([2]; age P7) was 9.7 ± 1.1 (n = 26) mV, the “DFGABA (mV), mean ± S.E.” value ([2]; age P15) was 10.2±1.0 mV and 10.2 ± 1 (n = 25 mV and 10.2 ± 1.0 (n = 25) mV and the “DFGABA (mV), mean ± S.E.” value ([2]; age P30) was 8.7 ± 0.8 (n = 25) mV. For the same molecule, the “Number of calls, isolation-induced USVs mean ± S.E.M” value [3] was 1 ± 0.5 (n = 26), the “Total duration of calls, isolation-induced USVs mean ± S.E.M” value [3] was 0.04 ± 0.02 (n = 26) and the “Integral power spectra of EEG recordings, mean ± S.E.M.” value (“Integral power spectra” for short) ([4]; frequency band 0.5-4 Hz) was 164.05 ± 39.44. The “Integral power spectra” value ([4]; frequency band 4-7 Hz) was 42.01 ± 12.03, the “Integral power spectra” value ([4]; frequency band 7-12 Hz) was 16.52 ± 4.32 and the “Integral power spectra” value ([4]; frequency band 12-25 Hz) was 16.56 ± 4.78. The “Integral power spectra” value ([4]; frequency band 25-60 Hz) was 2.41 ± 0.62, the “Integral power spectra” value ([4]; frequency band 60-120 Hz) was 0.74 ± 0.17 and the “Integral power spectra” value ([4]; frequency band 120-500 Hz) was 1.83 ± 0.42.

With `O=C(O)C1=CCNCC1` [isoguvacine] the “Effects of isoguvacine on frequency of spikes in extracellular recordings (% of control), mean ± S.E.” value (“Effects … (% of control), mean ± S.E.” for short) ([5]; VPA rats) was 213.5 ± 16.3 (n = 6), P < 0.001 % of control, the “Effects … (% of control), mean ± S.E.” value ([5]; VPA rats, listed as Isoguvacine) was 213.5±16.3 % of control and the “Effects … (% of control), mean ± S.E.” value ([5]; control rats) was 38.9 ± 5.1 (n = 3), P < 0.001 % of control. For the same molecule, the “Effects … (% of control), mean ± S.E.” value ([5]; control rats, listed as Isoguvacine) was 38.9±5.1 % of control, the “spike frequency in cell-attached recordings” value ([6]; isoguvacine 2 μM, naive neurons, P0) was “inhibited or did not affected” and the “spike frequency in cell-attached recordings” value ([6]; isoguvacine, VPA neurons, P0 and P15) was “excitatory action; also recorded: increased”.
